Reference: US10112978B2, “Peptide and use thereof” (OSAKA UNIVERSITY, priority 2014, dated 2018)
Entries after “also recorded” stand apart in the source; their conditions may differ.

Legend:
beagles = test: Adjuvant effect in dogs (anti-Ang II antibody titer after Ang II-KLH vaccine); format: in vivo; details: Ang II-KLH 25 μg/animal + OSK-1 500 μg/animal intracutaneously twice at a 2-week interval
Description: The adjuvant effect of OSK-1 was compared with that of the conventional Freund's adjuvant in dogs. Ang II-KLH (angiotensin II-keyhole limpet hemocyanin) as a vaccine (25 μg/animal) and OSK-1 (500 μg/animal) or Freund's adjuvant (250 μL/animal) as an adjuvant were intracutaneously administered to beagles twice at a 2-week interval (2 animals per group). For the Freund's adjuvant group, complete Freund's adjuvant was used at the first administration, and incomplete Freund's adjuvant was used at the second administration. Blood was drawn before the first administration and 2 and 4 weeks after the first administration, and the anti-Ang II antibody titer was measured.
The serum separated from the blood was serially diluted in 5% skim milk/PBS, and the diluted sera were added to an Ang II-BSA-coated 96-well ELISA plate. The plate was allowed to stand at 4° C. overnight. The wells were washed with PBS-T, an HRP-labeled anti-mouse IgG antibody diluted in 5% skim milk/PBS was added to the wells. The plate was incubated with agitation at room temperature for 3 hours. The wells were washed with PBS-T, and a TMB solution was added to the wells. The plate was allowed to stand under protection from light for 30 minutes, and 0.5 N H2SO4 was added to the wells to stop the reaction. The absorbance at 450 nm was measured and used for antibody titer comparison.

inflammasomes = test: Inflammasome activation: IL-1β and TNFα production in NLRP3-knockdown and control siRNA THP-1 cells; format: cell-based, human; details: OSK-1 10 μg/mL, 16 hours
Description: THP-1 cells were transfected with a siRNA against the inflammasome component NLRP3 (NOD-like receptor family, pyrin domain containing 3) (final concentration: 100 nM, Hs_CIAS 1_6 and Hs_CIAS 1_9, manufactured by QIAGEN) or a control siRNA using a transfection reagent (6 μL/well, HiPerFect Transfection Reagent, manufactured by QIAGEN). After overnight culture, the expression level of NLRP3 was determined by western blotting.
Each type of the THP-1 cells was suspended at 1×10^6 cells/mL in RPMI1640 medium containing 1 μg/mL LPS and 10% FBS, and incubated in a CO2 incubator for 3 hours for cell priming. The cell suspension was centrifugated, the cells were resuspended at 1×10^6 cells/mL in RPMI1640 medium containing 10% FBS, and the cell suspension was added to a 24-well plate at 500 μL/well. An OSK-1 solution was prepared at a 2-fold higher concentration than the final concentration in RPMI1640 medium containing 10% FBS and added to the plate at 500 μL/well. After 16 hours, the culture supernatant was harvested, and the IL-1β and TNFα concentrations in the supernatant were measured by ELISA.

NFκB = test: Activation of NFκB in THP-1 cells (TNFα production with or without NFκB inhibitors); format: cell-based, human; details: for production of TNFα: OSK-1 100 ng/mL
Description: THP-1 cells were diluted to 5×10^5 cells in 500 μL of RPMI1640 medium containing 10% FBS, and the cell suspension was added to a 24-well plate at 500 μL/well. QNZ (Enzo, final concentration: 10 μM) in RPMI1640 medium containing 10% FBS, BAY11-7082 (Enzo, final concentration: 10 μM) in RPMI1640 medium containing 10% FBS and RPMI1640 medium containing 10% FBS were added to the plate, and the cells were cultured for 2.5 hours. OSK-1 was added to the wells at a final concentration of 100 ng/mL, and the cells were cultured for 2 hours. After that, the culture supernatant was harvested, and the TNFα concentration in the supernatant was measured by ELISA.

THP-1 cells = test: CD86 and CD54 expression in THP-1 cells (flow cytometry, RFI); format: cell-based, human; details: overnight culture, relative fluorescence intensity
Description: THP-1 cells were seeded at a density of 2.0×10^5 cells/mL in 50 mL of RPMI1640 medium containing 10% FBS and 0.05 mM mercaptoethanol in a 75-cm^2 flask, and precultured for 48 hours.
The precultured THP-1 cells were harvested by centrifugation and suspended at 2.0×10^6 cells/mL in RPMI1640 medium containing 10% FBS and 0.05 mM mercaptoethanol, and the cell suspension was added to a 24-well plate at 500 μL/well. Test peptides were separately dissolved in the same medium as above, and 500 μL of each of the solutions was added to separate wells containing the cell suspension.
After overnight culture, the cells were harvested by centrifugation and washed twice with PBS containing 0.1% BSA (FACS buffer). The cells were then dispersed in 600 μL of FACS buffer containing 0.01% human γ-globulin solution (Sigma, G2388), and incubated at 4° C. for 10 minutes for blocking of Fc receptors.
After that, the cell suspension was divided into three 180-μL aliquots in 1.5-mL tubes, the tubes were centrifuged, and the cell pellets were prepared for the reaction with antibodies. To the cell pellets, FITC-labeled antibody solutions separately diluted to appropriate concentrations in FACS buffer were added in a volume of 50 μL, and incubation was performed at 4° C. for 30 minutes. The antibodies used were CD86 antibody (Pharmingen; Cat#555657), CD54 antibody (Dako; Cat# F7143) and isotype control (Mouse IgG) antibody (Dako; Cat#X0927). After the 30-minute incubation, the cells were harvested by centrifugation and washed twice with FACS buffer. The cells harvested by centrifugation were dispersed in 200 μL of FACS buffer containing 0.625 μg/mL propidium iodide, and the expression levels of the cell surface antigens on 1×10^4 viable cells were measured by flow cytometry. Forward and side scatter gating was not used for the analysis, and the relative fluorescence intensity (RFI) was calculated from the measured mean fluorescence intensities (MFI) by the following formula. […]
When the viability of the non-treated control cells (vehicle treatment cells) was 90% or more, the test was considered valid. In the case where the cell viability at a particular sample concentration used in the test was lower than 50%, the data of the CD54 level at the concentration was excluded from the evaluation.

C57/BL6 mice = test: Adjuvant effect in mice (anti-Ang II antibody titer after Ang II-KLH vaccine); format: in vivo; details: Ang II-KLH 2 μg/animal + OSK-1 100 μg/animal intracutaneously 3 times at 2-week intervals
Description: For the Freund's adjuvant group, complete Freund's adjuvant was used at the first administration, and incomplete Freund's adjuvant was used at the second and third administration. Blood was drawn before the first administration and 2, 4, 6 and 8 weeks after the first administration, and the anti-Ang II antibody titer was measured.
The antibody titer was measured in the same manner as in Example 7.

## ELKLIFLHRLKRLRKRLKRK (Ac-ELKLIFLHRLKRLRKRLKRK-NH2) [OSK-1]
beagles
  anti-Ang II antibody titer: increase in the anti-Ang II antibody titer was observed
inflammasomes; LPS-primed NLRP3-knockdown THP-1 cells
  production of IL-1β: the induction of IL-1β production by OSK-1 was inhibited
inflammasomes; NLRP3-knockdown and control siRNA THP-1 cells
  production of TNFα: induced by OSK-1 regardless of whether NLRP3 expression was knocked down or not
NFκB; 2 hours
  production of TNFα: induced the production of TNFα
NFκB; in the presence of NFκB inhibitor BAY11-7082 10 μM
  production of TNFα: inhibited in the presence of the NFκB inhibitor QNZ or BAY11-7082
NFκB; in the presence of NFκB inhibitor QNZ 10 μM
  production of TNFα: inhibited in the presence of the NFκB inhibitor QNZ
NFκB; concluded from TNFα production with and without NFκB inhibitors
  activating NFκB: effective for activating NFκB
THP-1 cells
  expression of CD54: strongly induced; also recorded: comparable or superior to that of muramyl dipeptide (MDP); also recorded: more highly active for inducing CD54 expression than SR-07 and SR-08
  expression of CD86: strongly induced; also recorded: comparable or superior to that of muramyl dipeptide (MDP)
C57/BL6 mice
  anti-Ang II antibody titer: increase in the anti-Ang II antibody titer was observed; also recorded: smaller than that in the Freund's adjuvant (FA) group, but comparable to that in the alum group
